Reference: patent publication US10533185B2, “Method for producing polyploidized megakaryocyte and platelets” (The University of Tokyo, priority 2011, dated 2020)

Key:
Format in all cases: cell-based, human
[1] = test system: megakaryocytes before polyploidization derived from ES cells; assay: Ploidy assay: FACS after Hoechst and anti-CD41a staining; conditions: for number of cells with 8N or greater: 10 μg/ml
Procedure: After introduction of MYC and MBI1 genes, the resulting megakaryocytes (about 10^5) were cultured for about 30 days in the absence of doxycycline and presence of estradiol under the culturing conditions of 37° C. and presence of 5% CO2 to proliferate them to about 10^11. Culturing was continued further while changing the condition to the presence of doxycycline and absence of estradiol in order to suppress the expression of the MYC gene and the BMI1 gene in the thus proliferated megakaryocytic cell line and adding an ROCK inhibitor (Y27632; product of Wako Pure Chemicals) to the culture medium to give a concentration of 10 μM in order to determine the influence of Y27632 on polyploidization. On Day 7 after culturing was started while adding Y27632 to the culture medium, the degree of polyploidization was studied using FACS (FIG. 5).
The degree of polyploidization was studied (ploidy assay) by suppressing expression of MYC/BMI1 in the presence of 10 μM of Y27632 while inducing […] of BCL-XL, and culturing the resulting cells for 7 days.
Influence on polyploidization was studied by further treating the cells, which was subjected to the treatment of 2-7-4, with valproic acid. After suppression of expression of MYC/BMI1, forced expression of BCL-XL, treatment with the ROCK inhibitor (10 μM), and suppression of expression of p53, valproic acid (final concentration: 0.5 mM) was added to the medium and culturing was conducted at 39° C. for 7 days.
After suppression of expression of MYC/BMI1, forced expression of BCL-XL, and treatment with blebbistatin (10 μg/ml), the resulting cells were cultured at 39° C. for 7 days.
(§1) Next, the degree of polyploidization when the blebbistatin treatment was used in combination with the other treatments was studied. The cells were subjected to blebbistatin treatment in addition to the above-mentioned treatments in Section 2-7-5 and influence of them on polyploidization was studied. After suppression of expression of MYC/BMI1, forced expression of BCL-XL, treatment with a ROCK inhibitor (10 μM), suppression of expression of p53, and treatment with valproic acid (0.5 mM), treatment with blebbistatin (10 μg/ml) was conducted and then, the resulting cells were cultured at 39° C. for 7 days. […] Induction to mature megakaryocytes was therefore confirmed (lower graph in FIG. 13).

iMKPC-type II cells [2] = assay: Microscopic observation of polyploidization of iMKPC-type II; conditions: 5 μg/ml; c-MYC and BMI1 off, BCL-XL forced, p53 knocked down
Description: It was observed that by turning off the expression of c-MYC and BMI1, forcing expression of BCL-XL, and knocking down the p53 gene, the cells become increasingly polyploidized.

iMKPC-type II cells [3] = assay: Platelet production from iMKPC-type II cells: flow cytometry for CD41/CD42b; conditions: 5 μM, 37° C., 3 days, with/without feeder cells and serum
Procedure: A platelet production efficiency was measured by using the following conditions in combination as shown in FIG. 17: use/non-use of feeder cells, use/non-use of Conditioned Medium, use of serum medium/use of serum-free medium, and administration/non-administration of blebbistatin.
Conditioned Medium was prepared by seeding 8×10^5 MMC-treated 10T1/2 cells on a 10-cm dish subjected to gelatin coating, changing the medium with 10 ml of a differentiation medium (EBM) containing SCF (50 ng/ml) and TPO (50 ng/ml) and further containing 15% serum or not containing a serum on the next day (after adhesion of cells), recovering the medium and adding 10 ml of a new medium (containing SCF and TPO) 24 hours later, pooling three-day's Conditioned Medium, and filtering the medium through a 0.22-μm filter to remove the 10T1/2 cells. When the resulting medium was used for tests, SCF and TPO were added newly. […]
The platelets contained in the supernatant of the medium were analyzed with a flow cytometer after staining with an antibody CD41 and an antibody CD42b. […]
Comparison in the expression level of CD42b in CD41-positive platelets in each population (a ratio of average fluorescence intensity of each population to average fluorescence intensity of normal condition) is shown in FIG. 18. […]

megakaryocytes (CD41a+) = assay: Growth curve and micrographs of cells treated with blebbistatin plus the other treatments; conditions: 10 μg/ml with the other treatments, after culturing for 7 days
Procedure: as §1

iMKPC-type II cells [4] = assay: Cytokine dependence and surface markers of iMKPC-type II; conditions: for proliferation of iMKPC-type II cells: SCF 50 ng/ml, TPO 50 ng/ml, 39° C., 21 days, Dox 0.5 μg/ml
Procedure: On 10T1/2 feeder cells, 2×10^5 iMKPC-type II cells were seeded, followed by culturing in the presence of 0.5 μg/ml of Dox at 39° C. for 21 days under the conditions of cytokines, that is, SCF (50 ng/ml), TPO (50 ng/ml), and EPO (6 U/ml).
On Day 21 after addition of cytokine, the cells were analyzed with a flow cytometer after staining with a CD41 antibody, a CD42b body, and a GPA antibody.

iMKPC-type I cells = assay: Cytokine dependence of iMKPC-type I proliferation; conditions: SCF 50 ng/ml, TPO 50 ng/ml, 37° C., 14 days, 10T1/2 feeder cells
Procedure: The cytokine dependence of iMKPC-type I was studied by seeding 2×10^5 iMKPC-type I cells on 10T1/2 feeder cells and culturing them for 14 days at 37° C. under the conditions shown in FIG. 1A in the presence of 2 uM of β-estradiol while using the following cytokines: SCF (50 ng/ml), TPO (50 ng/ml), and EPO (6 U/ml). A population in which proliferation was confirmed on Day 4 and Day 11 was counted for cell number, and 2×10^5 cells were replated, while the medium of the other populations was changed. The number of cells was counted on Day 8 and Day 14 and 2×10^5 cells were replated. At the same time, on Day 8, some of the cells were analyzed with a flow cytometer after staining with a CD41 antibody, a CD42b antibody, and a GPA antibody.

C[C@@H](N)[C@H]1CC[C@H](C(=O)Nc2ccncc2)CC1.Cl.Cl.O (relative stereo) [Y27632, (R)-(+)-trans-N-(4-pyridyl)-4-(1-aminoethyl)-cyclohexane carboxamide.2HCl.H2O]
number of cells with 4N (degree of polyploidization) ([1]; 10 μM, Day 7, MYC/BMI1 expression suppressed, compared with cells without inhibitor (vehicle)): increase in the number of cells with 4N

Cc1ccc2c(c1)C(=O)C1(O)CCN(c3ccccc3)C1=N2 (centres unmarked) [blebbistatin]
polyploidization by microscopic observation (iMKPC-type II cells [2]): polyploidized further | number of cells with 8N or greater ([1]; 39° C., 7 days, MYC/BMI1 suppressed, BCL-XL forced, ROCK inhibitor 10 μM, p53 suppressed, valproic acid 0.5 mM, vs control cells): greater | number of cells with 8N or greater ([1]; 39° C., 7 days, MYC/BMI1 suppressed, BCL-XL forced, vs cells without blebbistatin): greater | expression level of CD42b in CD41-positive platelets (ratio of average fluorescence intensity to normal condition) (iMKPC-type II cells [3]): Influence of blebbistatin was not found | platelet production amount (ratio of number of CD41+ CD42b+ platelets to normal condition) (iMKPC-type II cells [3]): No significant difference | cell morphology (cytoplasm) (megakaryocytes (CD41a+)): hypertrophy of cytoplasm was observed | proliferation capacity (megakaryocytes (CD41a+)): slight deterioration in proliferation capacity

CCCC(CCC)C(=O)O [valproic acid]
degree of polyploidization ([1]; 0.5 mM, 39° C., 7 days, MYC/BMI1 suppressed, BCL-XL forced, ROCK inhibitor 10 μM, p53 suppressed, vs untreated control cells): promoted polyploidization

SCF: cytokine added to the culture medium (50 ng/ml)
proliferation of iMKPC-type II cells (iMKPC-type II cells [4]): SCF had no influence on proliferation | proliferation of iMKPC-type I cells (iMKPC-type I cells): strongly depended on SCF

TPO: cytokine added to the culture medium (50 ng/ml)
expression of CD41a and CD42b (iMKPC-type II cells [4]; Day 21 after addition of cytokine, compared with the other populations): higher expression in CD41a and CD42b | proliferation of iMKPC-type II cells (iMKPC-type II cells [4]): proliferation is promoted further | proliferation of iMKPC-type I cells (iMKPC-type I cells): TPO had no influence on their proliferation
